US11673139B2, “Microfluidic platforms for drug discovery” (UVic Industry Partnerships Inc., priority 2020, dated 2023)

Assay: Passive diffusion of fluorophore through tripartite DIB network (intestinal space, enterocyte, blood compartments)
Format: in vitro ADME
Design: half-life: dose or concentration left out as unconfirmed
Source text: The first droplet 12 can mimic the intestinal space, the second droplet 14 can mimic an enterocyte, and the third droplet 16 can mimic the blood. The interior of each droplet 12, 14, 16 comprises a buffer (see Table 1) that mimics the pH and salt composition of the respective compartment. The barrier layer or artificial membrane between each pair of adjacent droplets can be an equal mixture of the phospholipids L-α-phosphatidylcholine (PC) and L-α-phosphatidylethanolamine (PE). The size of the droplets 116 can mimic the volume of human cells.
To prepare the lipid solutions, chloroform was removed from the lipid stock solutions by placing 10 mg (e.g., 400 μL of a 25 mgmL^−1 solution) of lipids in a 10 mL glass roundbottom flask, and rotating the flask under a stream of nitrogen gas to create a thin film. The flask was then placed in a desiccator under vacuum for 1 hour to remove residual solvent. […]
During use, the microfluidic devices were mounted in a heating platform set to 37° C. on a microscope stage (e.g., a Nikon Eclipse Ti2-E or a Nikon Eclipse Ti2-U inverted microscope) for visualization. […] Fluorescence and brightfield images for fluorescence experiments were captured using a measurement camera (e.g., a Hamamatsu ORCA Flash4.0 V3, with a Solis 1C cold white LED (e.g., from Thorlabs) and a GFP SemrockBrightline large field of view filter cube (e.g., from Nikon).
Reagents were introduced into the microfluidic devices using a pressure pump (e.g., an Elveflow OB1 MK3 pressure pump), four 1.5 mL Eppendorf tubes as reservoirs and four matched lengths of PTFE tubing. […] Following equilibration, the main chamber was monitored in Motion Blitz Director for quantification of device performance, and NIS Elements Advanced Research (Nikon, version 5.11.01) for fluorescence data collection. Following formation of a tripartite DIB network for a fluorescence experiment, flow was stopped from all reservoirs from within the Elveflow control software. […]

compartment preference in control triplets (100 µM): clear preference for pH 7.4 compartments | Papp (DIB network treated as two compartment model, intestinal space to enterocyte droplet, Equation (3), data of FIG. 6): (5.5±0.8)×10^−5 cms^−1 | half-life (DIB network, intestinal space droplet (pH 6.5) into enterocyte droplet (pH 7.4), 37° C., exponential curve fit, FIG. 5, read-out: half-life (t1/2) of the fluorophore in the intestinal space (converted)): 1.8 min
Structure (SMILES): O=C1OC2(c3ccc(O)cc3Oc3cc(O)ccc32)c2ccccc21 [fluorescein]
